Data from patent US20030224978A1, “Compounds and methods for modulating apoptosis” (McGill University, priority 1996, published 2003).
Entries after “also recorded” stand apart in the source; their conditions may differ. Positions of bridges follow the written chain, without caps; N, C: chain ends. Residues, ends and D or L forms follow the SMILES beside them.

Experiments:
chick N-cadherin = molecular target: T1, chick N-cadherin (Gallus gallus, UniProt P10288); assay: N-cadherin dependent neurite outgrowth of rat cerebellar neurons on N-cadherin expressing 3T3 cells (Example 14); type: cell-based; conditions: for activity on N-cadherin dependent neurite outgrowth at lower concentration, in words: concentrations of 125 µg/mL or below; for reduction in inhibitory activity on flanking HAV with E-cadherin amino acids: Table 8, 250 μg/mL; for inhibitory activity on N-cadherin dependent neurite outgrowth, in words: Tables 8 and 9, 250 or 125 μg/mL; for inhibition at 250 µg/mL: NIH3T3, 250 μg/mL, 16-18 hours
T1 construct: expressed in transfected cells; host or cells: 3T3 fibroblasts
T1 sequence (P10288 165-912): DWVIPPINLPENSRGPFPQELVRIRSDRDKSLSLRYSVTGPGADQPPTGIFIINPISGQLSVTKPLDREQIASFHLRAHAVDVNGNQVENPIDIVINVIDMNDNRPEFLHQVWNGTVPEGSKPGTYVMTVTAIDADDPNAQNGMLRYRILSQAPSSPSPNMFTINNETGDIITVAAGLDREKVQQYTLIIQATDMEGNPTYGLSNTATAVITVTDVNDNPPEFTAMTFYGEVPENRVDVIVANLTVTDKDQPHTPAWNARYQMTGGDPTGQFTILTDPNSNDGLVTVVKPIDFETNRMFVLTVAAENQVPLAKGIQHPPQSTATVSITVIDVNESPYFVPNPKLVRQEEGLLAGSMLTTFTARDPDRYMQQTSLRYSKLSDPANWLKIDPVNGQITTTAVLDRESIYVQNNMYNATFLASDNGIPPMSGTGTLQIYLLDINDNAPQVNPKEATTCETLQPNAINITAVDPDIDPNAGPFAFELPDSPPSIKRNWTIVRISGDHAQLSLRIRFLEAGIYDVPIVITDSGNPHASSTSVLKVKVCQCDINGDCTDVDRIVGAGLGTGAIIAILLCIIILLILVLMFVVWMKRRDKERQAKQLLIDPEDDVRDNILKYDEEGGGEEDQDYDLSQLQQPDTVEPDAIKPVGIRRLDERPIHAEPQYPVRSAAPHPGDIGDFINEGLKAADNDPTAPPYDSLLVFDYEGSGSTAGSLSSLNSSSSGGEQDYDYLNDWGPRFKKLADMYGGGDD
Procedure: Cell culture and neurite outgrowth assays. Co-cultures of cerebellar neurons on monolayers of control 3T3 cells and monolayers of transfected 3T3 cells that express physiological levels of chick N-cadherin or human L1 were established as previously described (Williams et al., Neuron 13:583-594, 1994). In brief, 80,000 3T3 cells (control and transfected) were plated into individual chambers of an eight-chamber tissue culture slide coated with polylysine and fibronectin and cultured in DMEM/10% FCS. After 24 hours, when confluent monolayers had formed, the medium was removed and 3000 cerebellar neurons isolated from post-natal day 2-3 rats were plated into each well in SATO media (Doherty et al., Nature 343:464-466, 1990) supplemented with 2% FCS. All of the test peptides were added immediately before the neurons as a 2×stock prepared in SATO/2% FCS. The co-cultures were maintained for 16-18 hours, at which time they were fixed and immunostained for GAP-43 which is present only in the neurons and delineates the neuritic processes. The mean length of the longest neurite per cell was measured for 150-200 neurons sampled in replicate cultures as previously described (Williams et al., Neuron 13:583-594, 1994). […] Dose-response curves were evaluated and the EC50 values determined.
Effects of cyclic HAV peptides on N-cadherin function. The ability of N-Ac-CHAVC-NH2 (SEQ ID NO:10; compound 1) to inhibit neurite outgrowth was initially tested. This cyclic peptide has the cadherin CAR sequence (HAV) and no flanking amino acid residues. Neurons were cultured on confluent monolayers of control (untransfected) and N-cadherin expressing 3T3 cells for 16-18 hours. The cells were then fixed and the length of the longest neurite on 150-200 neurons was determined by standard assay, as described above. FIG. 24 gives the mean neurite length in a representative experiment where cerebellar neurons have been cultured over control and N-cadherin expressing cells. In the absence of peptide, the mean length of the longest neurite per cell was approximately double on the N-cadherin expressing cells, as compared to 3T3 cells. This response requires N-cadherin function in both the neuron and transfected fibroblast.

in vitro [1] = type: cell-based; conditions: human
Procedure: (§1) N-Ac-CHAVC-NH2 (SEQ ID NO:10) and the control peptide N-Ac-CHGVC-NH2 (SEQ ID NO:20) were evaluated for possible cytotoxic effects on human microvascular endothelial (HMVEC; Clonetics), human umbilical vein endothelial (HUVEC; ATCC #CRL-1730), IAFp2 (human fibroblast cell line; Institute Armand-Frapier, Montreal, Quebec), WI-38 (human fibroblast cell line; ATCC #CCL-75), MDA-MB231 (human breast cancer cell line; ATCC #HTB-26), and PC-3 (human prostate cancer cell line; ATCC #CRL-1435) cells utilizing the MTT assay (Plumb et al., Cancer Res. 49:4435-4440, 1989). Neither of the peptides was cytotoxic at concentrations up to and including 100 μM. Similarly, neither of the peptides was capable of inhibiting the proliferation of the above cell lines at concentrations up to 100 μM, as judged by ^3H-thymidine incorporation assays.

in vitro [2] = type: cell-based; conditions: human; remark: listed apart in the source
Procedure: as §1

in vitro [3] = type: cell-based; conditions: human; remark: listed apart in the source
Procedure: as §1

in vitro [4] = type: cell-based; conditions: human; remark: listed apart in the source
Procedure: as §1

[5] = test system: angiogenesis in chick embryonic chorioallantoic membranes; assay: Chick chorioallantoic membrane angiogenesis assay; type: in vivo; conditions: 3, 17, and 33 μg/mesh
Procedure: The chick chorioallantoic membrane assay was used to assess the effects of cyclic peptides on angiogenesis (Iruela-Arispe et al., Molecular Biology of the Cell 6:327-343, 1995). Cyclic peptides were embedded in a mesh composed of vitrogen at concentrations of 3, 17, and 33 μg/mesh. The meshes were then applied to 12-day-old chick embryonic chorioallantoic membranes. After 24 hours, the effects of the peptides on angiogenesis were assessed by computer assisted morphometric analysis.
For each concentration of cyclic peptide, the percent inhibition of angiogenesis (relative to the level of angiogenesis in the absence of cyclic peptide) is provided. Assays were performed in the presence (+) or absence (−) of […] VEGF. For example, the cyclic peptide N-Ac-CHAVC-NH2 (SEQ ID NO:10) inhibited angiogenesis by 46%, 51%, and 51% at concentrations of 3, 17, and 33 μg/mesh, respectively.

| Compound | IC50 (in vitro [1]) [µM] | IC50 (in vitro [2]) [µM] | IC50 (in vitro [3]) [µM] | inhibition at 250 µg/mL (chick N-cadherin) [%] | IC50 (in vitro [4]) [µM] | further results |
| --- | --- | --- | --- | --- | --- | --- |
| N-Ac-CAHAVC-NH2 (disulfide 1-6 (inferred)) |  |  |  |  |  | activity on N-cadherin dependent neurite outgrowth at lower concentration, in words (chick N-cadherin): lost activity |
| N-Ac-CSHAVSC-NH2 (disulfide 1-7 (inferred)) |  |  |  |  |  | reduction in inhibitory activity on flanking HAV with E-cadherin amino acids (chick N-cadherin): complete |
| N-Ac-CRAHAVDC-NH2 (disulfide 1-8 (inferred)) |  |  |  |  |  | inhibitory activity on N-cadherin dependent neurite outgrowth, in words (chick N-cadherin): completely eliminated inhibitory activity |
| CC(=O)N[C@H]1CSSC[C@@H](C(N)=O)NC(=O)[C@H](CC(=O)O)NC(=O)[C@H](C(C)C)NC(=O)[C@H](C)NC(=O)[C@H](Cc2cnc[nH]2)NC1=O [N-Ac-CHAVDC-NH2] (Ac-CHAVDC-NH2; disulfide 1-6) |  |  |  |  |  | EC50 (chick N-cadherin; from dose-response curve): 93 µM |
| CC[C@H](C)[C@@H]1NC(=O)[C@H](CC(=O)O)NC(=O)[C@H](C(C)C)NC(=O)CNC(=O)[C@H](Cc2c[nH]cn2)NC(=O)[C@H](C)NC(=O)[C@@H](NC(C)=O)CSSC[C@@H](C(N)=O)NC1=O [reference compound] (Ac-CAHGVDIC-NH2; disulfide 1-8) | > 100 | > 100 | > 100 | 4.8 ± 6.5 | > 100 |  |
| CC(=O)N[C@H]1CSSC[C@@H](C(N)=O)NC(=O)[C@H](Cc2c[nH]cn2)NC(=O)[C@H](C)NC(=O)[C@H](C(C)C)NC1=O [N-Ac-CVAHC-NH2] (Ac-CVAHC-NH2; disulfide 1-5 (inferred)) | > 100 | > 100 | > 100 |  | > 100 | inhibition of angiogenesis, in words [5]: relatively inactive |
| CC(=O)N[C@H]1CSSC[C@@H](C(N)=O)NC(=O)[C@H](C(C)C)NC(=O)[C@H](C)NC(=O)[C@H](Cc2c[nH]cn2)NC(=O)[C@H](CO)NC1=O [N-Ac-CSHAVC-NH2, N-Ac-Cys-Ser-His-Ala-Val-Cys-NH2] (Ac-CSHAVC-NH2; disulfide 1-6) | > 100 | > 100 | > 100 | 11 ± 8.6 | > 100 | reduction in inhibitory activity on flanking HAV with E-cadherin amino acids (chick N-cadherin): complete |
| CC(C)[C@@H]1NC(=O)CNC(=O)[C@H](Cc2c[nH]cn2)NC(=O)[C@H](C)NC(=O)[C@@H](N)CSSC[C@@H](C(N)=O)NC(=O)[C@H](CC(=O)O)NC1=O [H-CAHGVDC-NH2, reference compound] (H-CAHGVDC-NH2; disulfide 1-7) | > 100 | > 100 | > 100 | 5.7 ± 7.8 | > 100 |  |
| N-Ac-CLRAHAVDC-NH2 (disulfide 1-9 (inferred)) |  |  |  |  |  | inhibitory activity on N-cadherin dependent neurite outgrowth, in words (chick N-cadherin): potent inhibitors of neurite outgrowth; also recorded: partial recovery of activity; activity on N-cadherin dependent neurite outgrowth at lower concentration, in words (chick N-cadherin): lost activity |
| CC[C@H](C)[C@@H]1NC(=O)[C@H](CC(=O)O)NC(=O)[C@H](C(C)C)NC(=O)[C@H](C)NC(=O)[C@H](Cc2c[nH]cn2)NC(=O)[C@H](C)NC(=O)[C@@H](N)CSSC[C@@H](C(N)=O)NC1=O (H-CAHAVDIC-NH2; disulfide 1-8) | > 100 | > 100 | > 100 | -3.7 ± 2.9 | > 100 | inhibitory activity on N-cadherin dependent neurite outgrowth, in words (chick N-cadherin): total loss of activity; inhibitory activity on N-cadherin dependent neurite outgrowth, in words (chick N-cadherin; listed as compound 15): lost activity |
| N-Ac-CHAVSSC-NH2 (disulfide 1-7 (inferred)) |  |  |  |  |  | reduction in inhibitory activity on flanking HAV with E-cadherin amino acids (chick N-cadherin): substantial |
| CC(C)[C@@H]1NC(=O)[C@H](C)NC(=O)[C@H](Cc2c[nH]cn2)NC(=O)[C@H](C)NC(=O)[C@@H](N)CSSC[C@@H](C(N)=O)NC(=O)[C@H](CC(=O)O)NC1=O [H-CAHAVDC-NH2, H-Cys-Ala-His-Ala-Val-Asp-Cys-NH2] (H-CAHAVDC-NH2; disulfide 1-7) | > 100 | > 100 | > 100 | 1.3 ± 13 | > 100 |  |
| N-Ac-CHAVDINGC-NH2 (disulfide 1-9 (inferred)) |  |  |  |  |  | inhibitory activity on N-cadherin dependent neurite outgrowth, in words (chick N-cadherin): completely abrogates activity |
| CC(=O)N[C@H]1CSSC[C@@H](C(N)=O)NC(=O)[C@H](C(C)C)NC(=O)CNC(=O)[C@H](Cc2c[nH]cn2)NC(=O)[C@H](CO)NC1=O [N-Ac-CSHGVC-NH2, reference compound] (Ac-CSHGVC-NH2; disulfide 1-6) | > 100 | > 100 | > 100 | 12.5 ± 7.5 | > 100 |  |
| CC[C@H](C)[C@@H]1NC(=O)[C@H](CC(=O)O)NC(=O)[C@H](C(C)C)NC(=O)CNC(=O)[C@H](Cc2c[nH]cn2)NC(=O)[C@H](C)NC(=O)[C@@H](N)CSSC[C@@H](C(N)=O)NC1=O [reference compound] (H-CAHGVDIC-NH2; disulfide 1-8) | > 100 | > 100 | > 100 | 7.2 ± 8.1 | > 100 |  |
| CC(=O)N[C@H]1CSSC[C@@H](C(N)=O)NC(=O)[C@H](CO)NC(=O)[C@H](C(C)C)NC(=O)CNC(=O)[C@H](Cc2c[nH]cn2)NC1=O [N-Ac-CHGVSC-NH2, reference compound] (Ac-CHGVSC-NH2; disulfide 1-6) | > 100 | > 100 | > 100 | -6.7 ± 5.8 | > 100 |  |
| N-Ac-CLRAHAVC-NH2 (disulfide 1-8 (inferred)) |  |  |  |  |  | inhibitory activity on N-cadherin dependent neurite outgrowth, in words (chick N-cadherin): detrimental affect |
| CC(=O)N[C@H]1CSSC[C@@H](C(N)=O)NC(=O)[C@H](Cc2c[nH]cn2)NC(=O)CNC(=O)[C@H](C(C)C)NC1=O [N-Ac-CVGHC-NH2, reference compound] (Ac-CVGHC-NH2; disulfide 1-5 (inferred)) | > 100 | > 100 | > 100 |  | > 100 |  |
